Counter-ions that a name gives are not always drawn. Like-named read-outs stand apart in the source and are kept apart here.
Assays:
[1] = system: E. coli J3272 Tet C; test: microbe, parasite or virus in culture; format: cell-based
[2] = system: E. coli PRP1 Tet A; test: microbe, parasite or virus in culture; format: cell-based
[3] = system: S. aureus UBMS 88-7 Tet K; test: microbe, parasite or virus in culture; format: cell-based; details: Staphylococcus aureus, UBMS887TETK, 18 h
[4] = system: S. aureus NEMC 8769; test: MIC, agar dilution; format: cell-based; details: Staphylococcus aureus, NEMC8769, 18 h
[5] = system: S. hemolyticus AVHAH 88-3; test: MIC, agar dilution; format: cell-based; details: Streptococcus pyogenes, AVHAH883, 18 h
[6] = system: Ps. aeruginosa ATCC 27853; test: MIC, agar dilution; format: cell-based; details: Ps. aeruginosa ATCC 27853
[7] = system: E. coli UBMS 88-1 Tet B; test: microbe, parasite or virus in culture; format: cell-based; details: Escherichia coli, UBMS881TETB, 18 h
[8] = system: E. coli ATCC 25922; test: MIC, agar dilution; format: cell-based; details: Escherichia coli, ATCC25922, 18 h
[9] = system: E. coli UBMS 90-4 Tet M; test: microbe, parasite or virus in culture; format: cell-based; details: Escherichia coli, UBMS904TETM, 18 h
[10] = system: E. coli MC 4100 TNIOC Tet B; test: microbe, parasite or virus in culture; format: cell-based; details: Escherichia coli, 18 h
[11] = system: S. aureus IVES 2943; test: MIC, agar dilution; format: cell-based; details: Staphylococcus aureus, IVES2943, 18 h
[12] = system: S. aureus ATCC 29213; test: MIC, agar dilution; format: cell-based; details: Staphylococcus aureus, ATCC29213, 18 h, S. aureus ATCC 29213
[13] = system: S. marcescens FPOR 8733; test: MIC, agar dilution; format: cell-based; details: Serratia marcescens, FPOR8733, 18 h, read-out: MIC
[14] = system: E. coli UBMS 90-5; test: microbe, parasite or virus in culture; format: cell-based; details: E. coli UBMS 90-5
[15] = system: Staphylococcus aureus strain Smith (tetracycline sensitive); test: Acute lethal infection in mice, S. aureus Smith; format: in vivo; details: for ED50: Staphylococcus aureus, 168 h, mice, S. aureus Smith (Sens), 7 day survival, read-out: ED50; for in vivo activity (in words): tested intravenously against the minocycline sensitive organism S. aureus Smith
[16] = system: E. coli J3272 Tet sens; test: MIC, agar dilution; format: cell-based; details: Escherichia coli, J3272TETSENS, 18 h
[17] = system: E. coli UBMS 89-2 Tet sens.; test: MIC, agar dilution; format: cell-based; details: Escherichia coli, 18 h
[18] = system: X. maltophilia NEMC 87210; test: MIC, agar dilution; format: cell-based; details: Stenotrophomonas maltophilia, NEMC87210, 18 h
[19] = system: S. aureus UBMS 90-1 Tet M; test: microbe, parasite or virus in culture; format: cell-based; details: Staphylococcus aureus, UBMS901TETM, 18 h
[20] = system: E. coli UBMS 89-1 Tet M; test: microbe, parasite or virus in culture; format: cell-based; details: Escherichia coli, UBMS891TETM, 18 h
[21] = system: E. coli #311 (MP); test: MIC, agar dilution; format: cell-based
[22] = system: S. aureus ROSE (MP); test: MIC, agar dilution; format: cell-based; details: Staphylococcus aureus, 18 h
[23] = system: S. aureus IVES 1983; test: MIC, agar dilution; format: cell-based; details: Staphylococcus aureus, IVES1983, 18 h
[24] = system: S. aureus UBMS 90-3; test: MIC, agar dilution; format: cell-based; details: Staphylococcus aureus, UBMS903, 18 h
[25] = system: E. coli J2175; test: MIC, agar dilution; format: cell-based; details: Escherichia coli, 18 h, read-out: MIC
[26] = system: S. aureus SMITH (MP); test: MIC, agar dilution; format: cell-based; details: Staphylococcus aureus, 18 h
[27] = system: Enterococcus 12201; test: MIC, agar dilution; format: cell-based; details: Enterococcus, 12201, 18 h
[28] = system: S. aureus UBMS 88-4; test: MIC, agar dilution; format: cell-based; details: Staphylococcus aureus, UBMS884, 18 h
[29] = system: E. faecalis ATCC 29212; test: MIC, agar dilution; format: cell-based; details: Enterococcus faecalis, ATCC29212, 18 h, E. faecalis ATCC 29212; read-out: MIC
[30] = system: E. coli J3272 Tet D; test: microbe, parasite or virus in culture; format: cell-based; details: Escherichia coli, J3272TETD, 18 h
[31] = system: E. coli BAJ9003 IMP MUT; test: microbe, parasite or virus in culture; format: cell-based; details: Escherichia coli, BAJ9003IMPMUT, 18 h
[32] = system: S. aureus UBMS 88-5 Tet M; test: microbe, parasite or virus in culture; format: cell-based; details: Staphylococcus aureus, UBMS885TETM, 18 h
[33] = system: E. coli MC 4100 Tet sens.; test: MIC, agar dilution; format: cell-based; details: Escherichia coli, 18 h
[34] = system: S. aureus UBMS 90-2 Tet M; test: microbe, parasite or virus in culture; format: cell-based; details: Staphylococcus aureus, UBMS902TETM, 18 h

Q: With CN(C)CC(=O)Nc1ccc2c(c1O)C(=O)C1=C(O)[C@]3(O)C(=O)C(C(N)=O)=C(O)[C@@H](N(C)C)C3CC1C2 (stereo partly drawn) [AA, [4S-(4alpha,12aalpha)]-4-(Dimethylamino)-9-[[(dimethylamino)acetyl]amino]-1,4,4a,5,5a,6,11,12a-octahydro-3,10,12,12a-tetrahydroxy-1,11-dioxo-2-naphthacenecarboxamide disulfate] as the compound, how does the MIC [1] read?
A: Its MIC is 1 µg/mL.

Q: What about the MIC [2] of the same compound?
A: Its MIC is 2 µg/mL.

Q: What about the MIC [3] of the same compound?
A: The MIC was 1 µg/mL.

Q: And the MIC [4]?
A: Its MIC is 0.03 µg/mL.

Q: What about the MIC ([5]; S. hemolyticus AVHAH 88-3, read-out: MIC) of the same compound?
A: The MIC was 0.5 µg/mL.

Q: And the MIC [6]?
A: The MIC was 16 µg/mL.

Q: And the MIC [7]?
A: Its MIC is 0.25 µg/mL.

Q: What about the MIC [8] of the same compound?
A: Its MIC is 0.25 µg/mL.

Q: And the MIC [9]?
A: The MIC was 0.25 µg/mL.

Q: And the MIC [10]?
A: The MIC was 0.25 µg/mL.

Q: What about the MIC ([11]; S. aureus IVES 2943, read-out: MIC) of the same compound?
A: The MIC was 1 µg/mL.

Q: What about the MIC [12] of the same compound?
A: The MIC was under 0.015 µg/mL.

Q: What about the MIC [13] of the same compound?
A: Its MIC is 4 µg/mL.

Q: What about the MIC [14] of the same compound?
A: Its MIC is 0.25 µg/mL.

Q: And the ED50 ([15]; iv, Intraveneous)?
A: Its ED50 is 0.5 to 1 mg/kg.

Q: What about the ED50 ([15]; po, Oral) of the same compound?
A: The ED50 was over 16 mg/kg.

Q: And the “in vivo activity (in words)” value [15]?
A: Its value is “very good in vivo activity”.

Q: And the MIC [16]?
A: Its MIC is 0.25 µg/mL.

Q: What about the MIC [17] of the same compound?
A: Its MIC is 0.25 µg/mL.

Q: And the MIC ([18]; X. maltophilia NEMC 87210, read-out: MIC)?
A: Its MIC is 2 µg/mL.

Q: And the MIC [19]?
A: Its MIC is 0.25 µg/mL.

Q: And the MIC [20]?
A: Its MIC is 0.25 µg/mL.

Q: What about the MIC ([21]; E. coli #311 (MP)) of the same compound?
A: The MIC was 0.50 µg/mL.

Q: What about the MIC [22] of the same compound?
A: Its MIC is 4 µg/mL.

Q: What about the MIC [23] of the same compound?
A: Its MIC is 2 µg/mL.

Q: And the MIC ([24]; S. aureus UBMS 90-3)?
A: Its MIC is 0.06 µg/mL.

Q: And the MIC [25]?
A: The MIC was 0.25 µg/mL.

Q: Which results are given for CCCCCCNCC(=O)Nc1ccc2c(c1O)C(=O)C1=C(O)[C@]3(O)C(=O)C(C(N)=O)=C(O)[C@@H](N(C)C)C3CC1C2 (stereo partly drawn) [G, [4S-(4alpha,12aalpha)]-4-(Dimethylamino)-9-[[(hexylamino)acetyl]amino]-1,4,4a,5,5a,6,11,12a-octahydro-3,10,12,12a-tetrahydroxy-1,11-dioxo-2-naphthacenecarboxamide dihydrochloride]?
A: MIC ([1]; Escherichia coli, J3272TETC, 18 h): 1 µg/mL; MIC ([2]; Escherichia coli, PRP1TETA, 18 h): 1 µg/mL; MIC [3]: 1 µg/mL; MIC ([4]; read-out: MIC): 0.12 µg/mL; MIC [5]: 2 µg/mL; MIC ([6]; Pseudomonas aeruginosa, ATCC27853, 18 h, read-out: MIC): 32 µg/mL; MIC [7]: 1 µg/mL; MIC [26]: 0.25 µg/mL; MIC [8]: 1 µg/mL; MIC [27]: 0.25 µg/mL; MIC [9]: 0.5 µg/mL; MIC [28]: 0.25 µg/mL; MIC [10]: 1 µg/mL; MIC [29]: 0.12 µg/mL; MIC [11]: 2 µg/mL; MIC [30]: 0.5 µg/mL; MIC [31]: 0.12 µg/mL; MIC [12]: 0.5 µg/mL; MIC [13]: 8 µg/mL; MIC ([14]; Escherichia coli, UBMS905, 18 h, read-out: MIC): 1 µg/mL; ED50 ([15]; iv, Intraveneous): > 4 mg/kg; ED50 ([15]; po, Oral): > 16 mg/kg; in vivo activity (in words) [15]: very good in vivo activity; MIC [17]: 1 µg/mL; MIC [32]: 0.5 µg/mL; MIC [18]: 1 µg/mL; MIC [19]: 1 µg/mL; MIC [33]: 0.12 µg/mL; MIC [20]: 0.25 µg/mL; MIC ([21]; Escherichia coli, 18 h): 1 µg/mL; MIC [34]: 0.25 µg/mL; MIC ([22]; read-out: MIC): 4 µg/mL; MIC [23]: 1 µg/mL; MIC [24]: 0.25 µg/mL; MIC [25]: 1 µg/mL

Source: patent publication US5567692A, “9-[(substituted glycyl) amido)]-6-demethyl-6-deoxytetracyclines” (priority 1995, dated 1996)
